Test results taken from the NIST ThermoML archive (doi:10.1021/je060271a).
Values joined by “and” are separate entries in the source; they are usually repeats but may differ in a detail not shown here. Identical values can stand only once.

Details: Liquid, Vibrating tube method

CCCCCCC(=O)OCC(COC(=O)CCCCCC)(COC(=O)CCCCCC)COC(=O)CCCCCC [pentaerythritol tetraheptanoate]
Details	mass density
323.14 K, 25915 kPa	972.2 kg/m3
323.14 K, 25942 kPa	972.3 kg/m3
323.14 K, 25974 kPa	972.2 kg/m3
323.14 K, 26002 kPa	972.3 kg/m3
323.14 K, 26088 kPa	972.3 kg/m3
323.14 K, 26774 kPa	972.7 kg/m3
323.14 K, 26808 kPa	972.6 kg/m3
323.14 K, 26837 kPa	972.6 kg/m3
323.14 K, 26866 kPa	972.9 kg/m3
323.14 K, 27024 kPa	972.9 kg/m3
323.14 K, 27055 kPa	972.9 kg/m3
323.14 K, 27085 kPa	972.9 kg/m3
323.14 K, 27114 kPa	973 kg/m3
323.14 K, 27150 kPa	973 kg/m3
323.14 K, 27179 kPa	972.9 kg/m3
323.14 K, 27214 kPa	973 kg/m3
323.14 K, 27244 kPa	973 kg/m3
323.14 K, 27274 kPa	973.1 kg/m3
323.14 K, 27565 kPa	973.2 kg/m3
323.14 K, 27596 kPa	973.2 kg/m3
323.14 K, 27731 kPa	973.3 kg/m3
323.14 K, 27762 kPa	973.3 kg/m3
323.14 K, 27825 kPa	973.3 kg/m3
323.14 K, 27863 kPa	973.4 kg/m3
323.14 K, 27895 kPa	973.4 kg/m3
323.14 K, 28027 kPa	973.5 kg/m3
323.14 K, 28373 kPa	973.8 kg/m3
323.14 K, 28406 kPa	973.7 kg/m3
323.14 K, 28439 kPa	973.7 kg/m3
323.14 K, 28757 kPa	973.8 kg/m3
323.14 K, 28791 kPa	973.9 kg/m3
323.14 K, 28831 kPa	973.9 kg/m3
323.14 K, 28904 kPa	973.9 kg/m3
323.14 K, 28938 kPa	974 kg/m3
323.14 K, 28973 kPa	974.1 kg/m3
323.14 K, 29048 kPa	974.1 kg/m3
323.14 K, 29083 kPa	974.1 kg/m3
323.14 K, 29124 kPa	974.1 kg/m3
323.14 K, 29158 kPa	974.1 kg/m3
323.14 K, 29193 kPa	974.1 kg/m3
323.14 K, 29227 kPa	974.2 kg/m3
323.14 K, 29270 kPa	974.2 kg/m3
323.14 K, 29304 kPa	974.3 kg/m3
323.14 K, 29346 kPa	974.3 kg/m3
323.14 K, 29381 kPa	974.2 kg/m3
323.14 K, 29416 kPa	974.2 kg/m3
323.14 K, 29451 kPa	974.2 kg/m3
323.14 K, 29494 kPa	974.4 kg/m3
323.14 K, 29529 kPa	974.4 kg/m3
323.14 K, 30197 kPa	974.6 kg/m3
323.14 K, 30480 kPa	974.8 kg/m3
323.14 K, 30518 kPa	975 kg/m3
323.14 K, 30556 kPa	974.9 kg/m3
323.14 K, 30596 kPa	974.9 kg/m3
323.14 K, 30642 kPa	975 kg/m3
323.14 K, 30681 kPa	975.1 kg/m3
323.14 K, 30728 kPa	975.2 kg/m3
323.14 K, 30768 kPa	975 kg/m3
323.14 K, 30807 kPa	975.1 kg/m3
323.14 K, 30846 kPa	975 kg/m3
323.14 K, 30893 kPa	975.2 kg/m3
323.14 K, 30933 kPa	975.1 kg/m3
323.14 K, 30973 kPa	975.1 kg/m3
323.14 K, 31020 kPa	975.2 kg/m3
323.14 K, 31060 kPa	975.2 kg/m3
323.14 K, 31108 kPa	975.2 kg/m3
323.14 K, 31148 kPa	975.2 kg/m3
323.14 K, 31188 kPa	975.3 kg/m3
323.14 K, 31237 kPa	975.2 kg/m3
323.14 K, 31277 kPa	975.4 kg/m3
323.14 K, 31319 kPa	975.3 kg/m3
323.14 K, 31359 kPa	975.4 kg/m3
323.14 K, 31408 kPa	975.4 kg/m3
323.14 K, 31448 kPa	975.4 kg/m3
323.14 K, 31497 kPa	975.6 kg/m3
323.14 K, 31539 kPa	975.5 kg/m3
323.14 K, 31580 kPa	975.4 kg/m3
323.14 K, 31621 kPa	975.5 kg/m3
323.14 K, 31671 kPa	975.6 kg/m3
323.14 K, 31712 kPa	975.5 kg/m3
323.14 K, 31762 kPa	975.8 kg/m3
323.14 K, 31804 kPa	975.8 kg/m3
323.14 K, 31847 kPa	975.7 kg/m3
323.14 K, 31898 kPa	975.6 kg/m3
323.14 K, 31940 kPa	975.7 kg/m3
323.14 K, 31982 kPa	975.8 kg/m3
323.14 K, 32450 kPa	976.1 kg/m3
323.14 K, 32496 kPa	976 kg/m3
323.14 K, 32540 kPa	976 kg/m3
323.14 K, 32584 kPa	976.2 kg/m3
323.14 K, 32637 kPa	976.1 kg/m3
323.14 K, 32681 kPa	976.1 kg/m3
323.14 K, 33266 kPa	976.4 kg/m3
323.14 K, 33360 kPa	976.5 kg/m3
323.14 K, 33416 kPa	976.4 kg/m3
323.14 K, 34625 kPa	977.3 kg/m3
323.15 K, 99.4 kPa	955.6 kg/m3
323.15 K, 99.5 kPa	955.5 kg/m3 and 955.6 kg/m3 and 955.7 kg/m3
323.15 K, 99.7 kPa	955.7 kg/m3 and 955.6 kg/m3
323.15 K, 99.8 kPa	955.7 kg/m3
323.15 K, 99.9 kPa	955.7 kg/m3 and 955.8 kg/m3 and 955.6 kg/m3
323.15 K, 100 kPa	955.7 kg/m3 and 955.8 kg/m3 and 955.6 kg/m3
323.15 K, 100.2 kPa	955.7 kg/m3 [middle of 4 runs]
323.15 K, 100.4 kPa	955.7 kg/m3 and 955.8 kg/m3 and 955.6 kg/m3
323.15 K, 100.5 kPa	955.6 kg/m3 and 955.7 kg/m3
323.15 K, 100.6 kPa	955.6 kg/m3 and 955.7 kg/m3 and 955.8 kg/m3
323.15 K, 100.7 kPa	955.8 kg/m3 and 955.7 kg/m3 and 955.5 kg/m3
323.15 K, 100.9 kPa	955.7 kg/m3
323.15 K, 101.1 kPa	955.6 kg/m3 and 955.7 kg/m3
323.15 K, 101.3 kPa	955.6 kg/m3
323.15 K, 101.5 kPa	955.8 kg/m3 and 955.7 kg/m3
323.15 K, 101.6 kPa	955.7 kg/m3
